Publication PMC5064002, “Sintokamide A Is a Novel Antagonist of Androgen Receptor That Uniquely Binds Activation Function-1 in Its Amino-terminal Domain” (The Journal of Biological Chemistry, 2016)

What was measured:
Assay type in all cases: cell-based
AR NTD = biological target: T1, AR NTD (Homo sapiens, UniProt P10275); test: Transactivation of AR NTD (AR-(1–558)-Gal4 DBD, 5xGal4UAS-TATA-luciferase) in LNCaP cells; settings: for IL-6-induced transactivation of AR NTD: 20 μM SINT1 or 25 μM EPI-002, 50 ng/ml IL-6 24 h; for forskolin-induced transactivation of AR NTD: 20 μM SINT1 or 25 μM EPI-002, 50 μM forskolin 24 h
T1 construct: expression vector for AR NTD encoding amino acids 1–558 fused to the Gal4 DBD; expressed in transfected cells; host or cells: LNCaP
T1 sequence (P10275 1-558): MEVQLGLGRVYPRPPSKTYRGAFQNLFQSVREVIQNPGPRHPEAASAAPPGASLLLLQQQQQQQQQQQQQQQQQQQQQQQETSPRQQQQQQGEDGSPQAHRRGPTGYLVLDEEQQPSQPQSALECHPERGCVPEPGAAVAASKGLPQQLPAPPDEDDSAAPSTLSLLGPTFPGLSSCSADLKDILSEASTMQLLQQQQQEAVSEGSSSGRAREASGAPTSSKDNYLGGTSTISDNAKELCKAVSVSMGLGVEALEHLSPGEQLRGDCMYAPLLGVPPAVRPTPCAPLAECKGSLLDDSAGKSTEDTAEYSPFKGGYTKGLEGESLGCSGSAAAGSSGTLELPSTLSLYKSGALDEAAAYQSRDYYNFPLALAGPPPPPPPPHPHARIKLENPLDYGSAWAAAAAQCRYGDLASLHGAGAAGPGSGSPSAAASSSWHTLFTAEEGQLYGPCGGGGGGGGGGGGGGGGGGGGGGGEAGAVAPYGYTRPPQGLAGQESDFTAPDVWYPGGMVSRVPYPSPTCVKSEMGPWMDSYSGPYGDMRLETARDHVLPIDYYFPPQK
Description: LNCaP cells were co-transfected with 5xGal4UAS-TATA-luciferase and AR-(1–558)-Gal4 DBD prior to pretreatment with 20 μM SINT1 or 25 μM EPI-002, which binds to the AR NTD to block AR transcriptional activity. NTD activity was induced by incubation with 50 μM forskolin or 50 ng/ml IL-6 for an additional 24 h ([7], [8]).
To test whether SINT1 can inhibit transactivation of AR NTD, LNCaP cells were co-transfected with an expression vector for AR NTD encoding amino acids 1–558 fused to the Gal4 DBD and a reporter construct with Gal4 DBD-binding sites. Transactivation of AR NTD is induced by forskolin or IL-6 ([8], [14]).

[1] = biological target: T2, AR interaction with STAT3 (Homo sapiens, UniProt P10275, T878A); test: Co-immunoprecipitation of AR with STAT3 in LNCaP cells; settings: EPI-002 35 μM or SINT1 20 μM, 50 ng/ml IL-6 6 h
T2 construct: endogenous in cells; host or cells: LNCaP
T2 sequence (P10275 1-920 T878A): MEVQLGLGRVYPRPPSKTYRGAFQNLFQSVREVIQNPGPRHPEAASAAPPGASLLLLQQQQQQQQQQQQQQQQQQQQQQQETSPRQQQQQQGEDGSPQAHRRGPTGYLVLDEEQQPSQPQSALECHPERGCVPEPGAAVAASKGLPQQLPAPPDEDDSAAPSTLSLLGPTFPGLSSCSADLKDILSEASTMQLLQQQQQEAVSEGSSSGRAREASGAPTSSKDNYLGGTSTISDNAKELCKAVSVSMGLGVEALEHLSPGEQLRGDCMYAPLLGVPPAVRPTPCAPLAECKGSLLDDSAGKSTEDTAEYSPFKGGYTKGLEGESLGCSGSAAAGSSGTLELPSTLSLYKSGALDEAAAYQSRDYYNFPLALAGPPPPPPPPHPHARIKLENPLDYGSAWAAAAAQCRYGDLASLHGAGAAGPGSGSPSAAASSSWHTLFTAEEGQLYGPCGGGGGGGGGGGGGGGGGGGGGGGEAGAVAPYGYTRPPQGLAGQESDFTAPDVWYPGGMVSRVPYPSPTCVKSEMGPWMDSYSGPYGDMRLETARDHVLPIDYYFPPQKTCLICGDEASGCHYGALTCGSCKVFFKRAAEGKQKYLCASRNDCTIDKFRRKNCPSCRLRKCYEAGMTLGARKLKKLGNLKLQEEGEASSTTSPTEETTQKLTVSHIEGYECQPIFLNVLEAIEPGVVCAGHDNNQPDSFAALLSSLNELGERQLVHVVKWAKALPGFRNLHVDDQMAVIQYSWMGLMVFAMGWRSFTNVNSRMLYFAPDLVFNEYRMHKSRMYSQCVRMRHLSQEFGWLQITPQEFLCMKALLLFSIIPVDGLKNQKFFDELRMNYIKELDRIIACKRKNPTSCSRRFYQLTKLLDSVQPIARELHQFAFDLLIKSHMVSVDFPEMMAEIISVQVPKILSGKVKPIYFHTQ
Description: LNCaP cells were preincubated with EPI-002 (35 μM), SINT1 (20 μM), or DMSO (vehicle control) for 1 h before treatment for 6 h with 50 ng/ml IL-6. Whole cell lysates were prepared from harvested cells in modified radioimmune precipitation assay buffer. Cell lysates were precleared with 2 μg of normal mouse IgG and 20 μl of Protein A/G PLUS-agarose beads (Santa Cruz Biotechnology) to remove nonspecific bead binding. Total STAT3 was immunoprecipitated with 10 μg of antibody against STAT3 (124H6) or 10 μg of normal mouse IgG as a negative control followed by probing the immunoblot with anti-AR antibody (AR-N20; 1:1000) and anti-STAT3 antibody (124H6; 1:1000) and normalizing to levels of β-actin (1:10,000) as loading controls. The input lanes were loaded with 5 μg of the starting cell lysate. The relative density of AR for each immunoprecipitated sample was quantified by ImageJ software and normalized to levels of STAT3 pulled down.

LNCaP95 cells = test: Cell proliferation (BrdU incorporation), LNCaP95; settings: 48 h
Description: Cells were pulse-labeled with 10 μM BrdU for 2 h. Cells were fixed, and BrdU-labeled cells were identified with anti-BrdU-peroxidase (Roche Applied Science). BrdU incorporation was measured at 570 nm using a VersaMax ELISA microplate reader (Molecular Devices). At least three independent experiments with six technical replicates were analyzed, and average values are indicated.

## CC(C)(c1ccc(OC[C@H](O)CO)cc1)c1ccc(OC[C@H](O)CCl)cc1 [EPI-002, reference compound]
AR NTD
  IL-6-induced transactivation of AR NTD: potent inhibitor
  forskolin-induced transactivation of AR NTD: significantly inhibited
[1]
  interaction between AR and STAT3: inhibited interaction
LNCaP95 cells
  proliferation of LNCaP95 cells: inhibited

## CCC(=O)NC(CC(C)C(Cl)(Cl)Cl)C(=O)N1C(=O)C=C(OC)C1CC(C)C(Cl)Cl (centres unmarked) [SINT1, Sintokamide A]
AR NTD
  IL-6-induced transactivation of AR NTD: no significant effect
  forskolin-induced transactivation of AR NTD: significantly inhibited
[1]
  interaction between AR and STAT3: did not
LNCaP95 cells
  proliferation of LNCaP95 cells: inhibited
